The results in this text go back to patent US9611224B2 (Hoffmann-La Roche Inc., priority 2012, dated 2017).

Structures can show the parent of a compound that is named as a salt.

By IC50 is commonly meant the midpoint of a concentration-inhibition curve.

The target in one assay is BIR3 domain of XIAP (Homo sapiens (Human), UniProt P98170). Briefly: TR-FRET assay for BIR3 (inhibition of binding to Peptide A).
Sequence of BIR3 domain of XIAP (P98170 other isoform, or with tags, fused parts or gaps): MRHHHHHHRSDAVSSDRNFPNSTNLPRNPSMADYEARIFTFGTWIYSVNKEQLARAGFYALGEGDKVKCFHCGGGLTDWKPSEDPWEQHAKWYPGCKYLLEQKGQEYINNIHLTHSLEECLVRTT
Details: not given
The protocol:
TR-FRET Assay for BIR2 and BIR3
Percentage of inhibition at each concentration was determined to generate an IC50 value for each test compound.
For orientation: In TR-FRET formats the signal depends on donor and acceptor labels being close together.
`CN[C@@H](C)C(=O)N[C@H]1CCc2ccccc2N(Cc2c(OC)ccc3cc(C(F)(F)F)ccc23)C1=O` [Example 47l, (S)—N—[(S)-1-(2-Methoxy-6-trifluoromethyl-naphthalen-1-ylmethyl)-2-oxo-2,3,4,5-tetrahydro-1H-benzo[b]azepin-3-yl]-2-methylamino-propionamide hydrochloride] registered an IC50 of 40.4 µM.

Still in this assay, the particulars now being: 6x His-tagged BIR3 domain (aa 241-356 of XIAP), 20 nM Peptide A, 10 concentrations.
`CN[C@@H](C)C(=O)N[C@H]1CCc2ccccc2N(Cc2c(OC)ccc3cc(-c4ncon4)ccc23)C1=O` [Example 32, (S)—N—[(S)-1-(2-Methoxy-6-[1,2,4]oxadiazol-3-yl-naphthalen-1-ylmethyl)-2-oxo-2,3,4,5-tetrahydro-1H-benzo[b]azepin-3-yl]-2-methylamino-propionamide hydrochloride]: the concentration for half-maximal inhibition (IC50) was above 54.8 µM.

`CN[C@@H](C)C(=O)N[C@H]1CCc2ccccc2N(Cc2c(OC)ccc3cc(C(=N)NN)ccc23)C1=O` [Example 33, (S)—N—{(S)-1-[6-(N-Aminocarbamimidoyl)-2-methoxy-naphthalen-1-ylmethyl]-2-oxo-2,3,4,5-tetrahydro-1H-benzo[b]azepin-3-yl}-2-methylamino-propionamide dihydrochloride]: the half-inhibitory concentration (IC50) is above 54.8 µM.

Take `CN[C@@H](C)C(=O)N[C@H]1CCc2ccccc2N(Cc2c(OC)ccc3cc(-c4cn[nH]c4)ccc23)C1=O` [Example 43, (S)—N—{(S)-1-[2-Methoxy-6-(1H-pyrazol-4-yl)-naphthalen-1-ylmethyl]-2-oxo-2,3,4,5-tetrahydro-1H-benzo[b]azepin-3-yl}-2-methylamino-propionamide hydrochloride]: the half-maximal inhibitory concentration (IC50) was above 54.8 µM.

Consider `CN[C@@H](C)C(=O)N[C@H]1CCc2ccccc2N(Cc2c(OC)ccc3c2CCCC3)C1=O` [Example 44, (S)—N—[(S)-1-(2-Methoxy-5,6,7,8-tetrahydro-naphthalen-1-ylmethyl)-2-oxo-2,3,4,5-tetrahydro-1H-benzo[b]azepin-3-yl]-2-methylamino-propionamide hydrochloride], for which the concentration for half-maximal inhibition (IC50) was above 57.6 µM.

As to `CN[C@@H](C)C(=O)N[C@H]1CCc2ccccc2N(Cc2c(OC)ccc3cc(C(C)=O)ccc23)C1=O` [Example 45, (S)—N—[(S)-1-(6-Acetyl-2-methoxy-naphthalen-1-ylmethyl)-2-oxo-2,3,4,5-tetrahydro-1H-benzo[b]azepin-3-yl]-2-methylamino-propionamide hydrochloride], the IC50 is above 54.8 µM.

`C=Cc1ccc2c(CN3C(=O)[C@@H](NC(=O)[C@H](C)NC)CCc4ccccc43)c(OC)ccc2c1` [Example 46, (S)—N—[(S)-1-(2-Methoxy-6-vinyl-naphthalen-1-ylmethyl)-2-oxo-2,3,4,5-tetrahydro-1H-benzo[b]azepin-3-yl]-2-methylamino-propionamide hydrochloride] displayed a concentration for half-maximal inhibition (IC50) above 54.8 µM.

`CN[C@@H](C)C(=O)N[C@H]1CCc2ccccc2N(Cc2cnnc3ccccc23)C1=O` [Example 47aa, (S)—N—((S)-1-Cinnolin-4-ylmethyl-2-oxo-2,3,4,5-tetrahydro-1H-benzo[b]azepin-3-yl)-2-methylamino-propionamide hydrochloride] showed a 50% inhibitory concentration (IC50) above 54.8 µM.

In turn, `CN[C@@H](C)C(=O)N[C@H]1CCc2ccccc2N(Cc2c(C)ccc3ccccc23)C1=O` [Example 47b, (S)-2-Methylamino-N—[(S)-1-(2-methyl-naphthalen-1-ylmethyl)-2-oxo-2,3,4,5-tetrahydro-1H-benzo[b]azepin-3-yl]-propionamide hydrochloride] yielded an IC50 above 54.8 µM.

Consider `CN[C@@H](C)C(=O)N[C@H]1CCc2ccccc2N(Cc2c(C)cc(C)c3ccccc23)C1=O` [Example 47bb, (S)—N—[(S)-1-(2,4-Dimethyl-naphthalen-1-ylmethyl)-2-oxo-2,3,4,5-tetrahydro-1H-benzo[b]azepin-3-yl]-2-methylamino-propionamide hydrochloride], for which the IC50 was above 54 µM.

In the case of `CN[C@@H](C)C(=O)N[C@H]1CCc2ccccc2N(Cc2c(OC)ccc3ccccc23)C1=O` [Example 47c, (S)—N—[(S)-1-(2-Methoxy-naphthalen-1-ylmethyl)-2-oxo-2,3,4,5-tetrahydro-1H-benzo[b]azepin-3-yl]-2-methylamino-propionamide hydrochloride], the 50% inhibitory concentration (IC50) is above 54 µM.

The compound `CN[C@@H](C)C(=O)N[C@H]1CCc2ccccc2N(Cc2ccnc3ncccc23)C1=O` [Example 47cc, (S)-2-Methylamino-N—((S)-1-[1,8]naphthyridin-4-ylmethyl-2-oxo-2,3,4,5-tetrahydro-1H-benzo[b]azepin-3-yl)-propionamide hydrochloride] had a concentration for half-maximal inhibition (IC50) above 54.8 µM.

Consider `CN[C@@H](C)C(=O)N[C@H]1CCc2ccccc2N(Cc2ccnc3ccccc23)C1=O` [Example 47d, (S)-2-Methylamino-N—((S)-2-oxo-1-quinolin-4-ylmethyl-2,3,4,5-tetrahydro-1H-benzo[b]azepin-3-yl)-propionamide hydrochloride], for which the IC50 is above 54.8 µM.

As to `CN[C@@H](C)C(=O)N[C@H]1CCc2ccccc2N(Cc2c(OC(C)C)ccc3ccccc23)C1=O` [Example 47dd, (S)—N—[(S)-1-(2-Isopropoxy-naphthalen-1-ylmethyl)-2-oxo-2,3,4,5-tetrahydro-1H-benzo[b]azepin-3-yl]-2-methylamino-propionamide hydrochloride], the concentration for half-maximal inhibition (IC50) was above 54.8 µM.

`CN[C@@H](C)C(=O)N[C@H]1CCc2ccccc2N(Cc2cccc3ncccc23)C1=O` [Example 47e, (S)-2-Methylamino-N—((S)-2-oxo-1-quinolin-5-ylmethyl-2,3,4,5-tetrahydro-1H-benzo[b]azepin-3-yl)-propionamide hydrochloride]: the IC50 is above 54.8 µM.

As for `CN[C@@H](C)C(=O)N[C@H]1CCc2ccccc2N(Cc2cccc3cc4ccccc4cc23)C1=O` [Example 47ee, (S)—N—((S)-1-Anthracen-1-ylmethyl-2-oxo-2,3,4,5-tetrahydro-1H-benzo[b]azepin-3-yl)-2-methylamino-propionamide hydrochloride], the IC50 was above 54.8 µM.

Consider `CN[C@@H](C)C(=O)N[C@H]1CCc2ccccc2N(Cc2ccc(C)c3ccccc23)C1=O` [Example 47f, (S)-2-Methylamino-N—[(S)-1-(4-methyl-naphthalen-1-ylmethyl)-2-oxo-2,3,4,5-tetrahydro-1H-benzo[b]azepin-3-yl]-propionamide hydrochloride], for which the 50% inhibitory concentration (IC50) was above 54.8 µM.

In turn, `CN[C@@H](C)C(=O)N[C@H]1CCc2ccccc2N(Cc2cccc3ccc(Br)cc23)C1=O` [Example 47ff, (S)—N—[(S)-1-(7-Bromo-naphthalen-1-ylmethyl)-2-oxo-2,3,4,5-tetrahydro-1H-benzo[b]azepin-3-yl]-2-methylamino-propionamide hydrochloride] came in with a half-maximal inhibitory concentration (IC50) of 47.5 µM. In other words, the double-digit micromolar range.

Compound `CN[C@@H](C)C(=O)N[C@H]1CCc2ccccc2N(Cc2ccc(Br)c3ccccc23)C1=O` [Example 47g, (S)—N—[(S)-1-(4-Bromo-naphthalen-1-ylmethyl)-2-oxo-2,3,4,5-tetrahydro-1H-benzo[b]azepin-3-yl]-2-methylamino-propionamide hydrochloride] returned an IC50 above 54.8 µM.

Regarding `CN[C@@H](C)C(=O)N[C@H]1CCc2ccccc2N(Cc2cc(Br)cc3ccccc23)C1=O` [Example 47gg, (S)—N—[(S)-1-(3-Bromo-naphthalen-1-ylmethyl)-2-oxo-2,3,4,5-tetrahydro-1H-benzo[b]azepin-3-yl]-2-methylamino-propionamide hydrochloride], the half-inhibitory concentration (IC50) is above 54.8 µM.

Turning to `CN[C@@H](C)C(=O)N[C@H]1CCc2ccccc2N(Cc2cccc3ccccc23)C1=O` [Example 47h, (S)-2-Methylamino-N—((S)-1-naphthalen-1-ylmethyl-2-oxo-2,3,4,5-tetrahydro-1H-benzo[b]azepin-3-yl)-propionamide hydrochloride], the half-inhibitory concentration (IC50) was above 54.2 µM.

The compound `CN[C@@H](C)C(=O)N[C@H]1CCc2ccccc2N(Cc2cccc3cccc(Br)c23)C1=O` [Example 47hh, (S)—N—[(S)-1-(8-Bromo-naphthalen-1-ylmethyl)-2-oxo-2,3,4,5-tetrahydro-1H-benzo[b]azepin-3-yl]-2-methylamino-propionamide hydrochloride] had a half-maximal inhibitory concentration (IC50) above 54.8 µM.

In the case of `C#Cc1ccc2ccccc2c1CN1C(=O)[C@@H](NC(=O)[C@H](C)NC)CCc2ccccc21` [Example 47i, (S)—N—[(S)-1-(2-Ethynyl-naphthalen-1-ylmethyl)-2-oxo-2,3,4,5-tetrahydro-1H-benzo[b]azepin-3-yl]-2-methylamino-propionamide hydrochloride], the IC50 is above 54.8 µM.

Take `CN[C@@H](C)C(=O)N[C@H]1CCc2ccccc2N(Cc2c(OC)cnc3ccccc23)C1=O` [Example 47ii, (S)—N—[(S)-1-(3-Methoxy-quinolin-4-ylmethyl)-2-oxo-2,3,4,5-tetrahydro-1H-benzo[b]azepin-3-yl]-2-methylamino-propionamide hydrochloride]: the concentration for half-maximal inhibition (IC50) is 44.9 µM.

In the case of `C#Cc1cnc2ccccc2c1CN1C(=O)[C@@H](NC(=O)[C@H](C)NC)CCc2ccccc21` [Example 47j, (S)—N—[(S)-1-(3-Ethynyl-quinolin-4-ylmethyl)-2-oxo-2,3,4,5-tetrahydro-1H-benzo[b]azepin-3-yl]-2-methylamino-propionamide hydrochloride], the IC50 was 37.2 µM.

As to `CN[C@@H](C)C(=O)N[C@H]1CCc2ccccc2N(Cc2cccc3ccsc23)C1=O` [Example 47jj, (S)—N—((S)-1-Benzo[b]thiophen-7-ylmethyl-2-oxo-2,3,4,5-tetrahydro-1H-benzo[b]azepin-3-yl)-2-methylamino-propionamide hydrochloride], the half-maximal inhibitory concentration (IC50) is above 54.8 µM.

Regarding `CN[C@@H](C)C(=O)N[C@H]1CCc2ccccc2N(Cc2c(C3CC3)ccc3ccccc23)C1=O` [Example 47k, (S)—N—[(S)-1-(2-Cyclopropyl-naphthalen-1-ylmethyl)-2-oxo-2,3,4,5-tetrahydro-1H-benzo[b]azepin-3-yl]-2-methylamino-propionamide hydrochloride], the half-maximal inhibitory concentration (IC50) is above 54.8 µM.

`CN[C@@H](C)C(=O)N[C@H]1CCc2ccccc2N(Cc2ccc(C#N)c3ccccc23)C1=O` [Example 47kk, (S)—N—[(S)-1-(4-Cyano-naphthalen-1-ylmethyl)-2-oxo-2,3,4,5-tetrahydro-1H-benzo[b]azepin-3-yl]-2-methylamino-propionamide hydrochloride] returned an IC50 above 54.8 µM.
